Experimental data taken from PubChem BioAssay (NCI).
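A five-concentration, 48-hour dose response in 96-well plates underlies each endpoint, interpolated linearly between surrounding concentrations. Abbreviation: GI50, concentration required for 50% inhibition of growth. At the TGI there is no net growth.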

Tests used:
Assay in all cases: NCI-60 cell line screen, 48 h
MDA-MB-231 breast = system: MDA-MB-231 breast
SF-539 CNS = system: SF-539 CNS
U251 CNS = system: U251 CNS
SK-MEL-2 melanoma = system: SK-MEL-2 melanoma
SNB-75 CNS = system: SNB-75 CNS
MDA-MB-468 breast = system: MDA-MB-468 breast
OVCAR-5 ovarian = system: OVCAR-5 ovarian
EKVX NSCLC = system: EKVX NSCLC
HS 578T breast = system: HS 578T breast
HL-60(TB) leukemia = system: HL-60(TB) leukemia
HOP-92 NSCLC = system: HOP-92 NSCLC
SK-OV-3 ovarian = system: SK-OV-3 ovarian
SF-295 CNS = system: SF-295 CNS
HOP-62 NSCLC = system: HOP-62 NSCLC
IGROV1 ovarian = system: IGROV1 ovarian
NCI/ADR-RES ovarian = system: NCI/ADR-RES ovarian
MDA-MB-435 = system: MDA-MB-435
SW-620 colon = system: SW-620 colon
MCF7 breast = system: MCF7 breast
HCT-15 colon = system: HCT-15 colon
ACHN renal = system: ACHN renal
PC-3 prostate = system: PC-3 prostate
OVCAR-4 ovarian = system: OVCAR-4 ovarian
CAKI-1 renal = system: CAKI-1 renal
UO-31 renal = system: UO-31 renal
DU-145 prostate = system: DU-145 prostate
KM12 colon = system: KM12 colon
OVCAR-3 ovarian = system: OVCAR-3 ovarian
SN12C renal = system: SN12C renal
SNB-19 CNS = system: SNB-19 CNS
CCRF-CEM leukemia = system: CCRF-CEM leukemia
BT-549 breast = system: BT-549 breast
M14 melanoma = system: M14 melanoma
UACC-62 melanoma = system: UACC-62 melanoma
MALME-3M melanoma = system: MALME-3M melanoma
MOLT-4 leukemia = system: MOLT-4 leukemia
NCI-H460 lung = system: NCI-H460 lung
LOX IMVI melanoma = system: LOX IMVI melanoma
A498 renal = system: A498 renal
HCT-116 colon = system: HCT-116 colon
NCI-H226 lung = system: NCI-H226 lung
HT29 colon = system: HT29 colon
SR leukemia = system: SR leukemia
COLO 205 colon = system: COLO 205 colon
SF-268 CNS = system: SF-268 CNS
RPMI-8226 leukemia = system: RPMI-8226 leukemia
K-562 leukemia = system: K-562 leukemia
UACC-257 melanoma = system: UACC-257 melanoma
A549 NSCLC = system: A549 NSCLC
786-0 renal = system: 786-0 renal
SK-MEL-5 melanoma = system: SK-MEL-5 melanoma
HCC-2998 colon = system: HCC-2998 colon
T-47D breast = system: T-47D breast
RXF 393 renal = system: RXF 393 renal
SK-MEL-28 melanoma = system: SK-MEL-28 melanoma
NCI-H23 lung = system: NCI-H23 lung
TK-10 renal = system: TK-10 renal
OVCAR-8 ovarian = system: OVCAR-8 ovarian
NCI-H522 lung = system: NCI-H522 lung

## O=C(N/N=C/c1c[nH]c2ccccc12)Nc1ccc(F)c(Cl)c1
MDA-MB-231 breast
  GI50: 11.8 µM
  TGI: 24 µM
SF-539 CNS
  GI50: 10.1 µM
  TGI: 21.6 µM
U251 CNS
  GI50: 13.3 µM
  TGI: 26 µM
SK-MEL-2 melanoma
  GI50: 10.7 µM
  TGI: 22.6 µM
SNB-75 CNS
  GI50: 11.8 µM
  TGI: 24 µM
MDA-MB-468 breast
  GI50: 1.98 µM
  TGI: 7.74 µM
OVCAR-5 ovarian
  GI50: 13.5 µM
  TGI: 26.3 µM
EKVX NSCLC
  GI50: 13.8 µM
  TGI: 28.6 µM
HS 578T breast
  GI50: 13.7 µM
  TGI: 39.7 µM
HL-60(TB) leukemia
  GI50: 3.44 µM
  TGI: 18.8 µM
HOP-92 NSCLC
  GI50: 2.04 µM
  TGI: 6.59 µM
SK-OV-3 ovarian
  GI50: 12.9 µM
  TGI: 26.8 µM
SF-295 CNS
  GI50: 14.4 µM
  TGI: 27.4 µM
HOP-62 NSCLC
  GI50: 13.1 µM
  TGI: 25.8 µM
IGROV1 ovarian
  GI50: 7.6 µM
  TGI: 21.7 µM
NCI/ADR-RES ovarian
  GI50: 6.05 µM
  TGI: 25 µM
MDA-MB-435
  GI50: 3.35 µM
  TGI: 12.6 µM
SW-620 colon
  GI50: 10.9 µM
  TGI: 22.8 µM
MCF7 breast
  GI50: 6.47 µM
  TGI: 23.1 µM
HCT-15 colon
  GI50: 5.13 µM
  TGI: 17.9 µM
ACHN renal
  GI50: 14.6 µM
  TGI: 27.7 µM
PC-3 prostate
  GI50: 3.12 µM
  TGI: 14.5 µM
OVCAR-4 ovarian
  GI50: 12.8 µM
  TGI: 28.7 µM
CAKI-1 renal
  GI50: 14.8 µM
  TGI: 28 µM
UO-31 renal
  GI50: 5.01 µM
  TGI: 19.4 µM
DU-145 prostate
  GI50: 14.4 µM
  TGI: 27.4 µM
KM12 colon
  GI50: 8.76 µM
  TGI: 21 µM
OVCAR-3 ovarian
  GI50: 11.5 µM
  TGI: 23.6 µM
SN12C renal
  GI50: 11.2 µM
  TGI: 23.2 µM
SNB-19 CNS
  GI50: 14.9 µM
  TGI: 28.1 µM
CCRF-CEM leukemia
  GI50: 0.604 µM
  TGI: 11.7 µM
BT-549 breast
  GI50: 0.312 µM
  TGI: 1.54 µM
M14 melanoma
  GI50: 1.57 µM
  TGI: 3.44 µM
UACC-62 melanoma
  GI50: 10.8 µM
  TGI: 22.6 µM
MALME-3M melanoma
  GI50: 12.6 µM
  TGI: 25.1 µM
MOLT-4 leukemia
  GI50: 1.44 µM
  TGI: 11.8 µM
NCI-H460 lung
  GI50: 13 µM
  TGI: 26.3 µM
LOX IMVI melanoma
  GI50: 11.2 µM
  TGI: 23.2 µM
A498 renal
  GI50: 15.4 µM
  TGI: 30.2 µM
HCT-116 colon
  GI50: 1.49 µM
  TGI: 2.84 µM
NCI-H226 lung
  GI50: 10.3 µM
  TGI: 34.7 µM
HT29 colon
  GI50: 12.7 µM
  TGI: 25.3 µM
SR leukemia
  GI50: 2.2 µM
  TGI: 13.3 µM
COLO 205 colon
  GI50: 14.1 µM
  TGI: 27.1 µM
SF-268 CNS
  GI50: 8.09 µM
  TGI: 20.9 µM
RPMI-8226 leukemia
  GI50: 1.48 µM
  TGI: 9.26 µM
K-562 leukemia
  GI50: 1.86 µM
  TGI: 17.4 µM
UACC-257 melanoma
  GI50: 13.6 µM
  TGI: 26.4 µM
A549 NSCLC
  GI50: 12.7 µM
  TGI: 26.3 µM
786-0 renal
  GI50: 1.37 µM
  TGI: 3.27 µM
SK-MEL-5 melanoma
  GI50: 8.65 µM
  TGI: 20.8 µM
HCC-2998 colon
  GI50: 11.7 µM
  TGI: 23.9 µM
T-47D breast
  GI50: 11.5 µM
  TGI: 32 µM
RXF 393 renal
  GI50: 3.97 µM
  TGI: 15.5 µM
SK-MEL-28 melanoma
  GI50: 12.5 µM
  TGI: 25 µM
NCI-H23 lung
  GI50: 13.5 µM
  TGI: 27.2 µM
TK-10 renal
  GI50: 22.8 µM
  TGI: 44.3 µM
OVCAR-8 ovarian
  GI50: 14.3 µM
  TGI: 31.6 µM
NCI-H522 lung
  GI50: 1.68 µM
  TGI: 8.35 µM
